“Also recorded” adds a separate entry of the source.

The target in one data set is SCF-βTrCP / NRF2 (Homo sapiens, UniProt Q9Y297). Nature of the data set: In vitro ubiquitination of phosphorylated NRF2 by the βTrCP complex. Format: biochemical. Conditions: for ubiquitination (polyubiquitination) of NRF2 by βTrCP: PHAR 3 μM, 1 hour at 25° C., western blot. On the procedure: In vitro kinase assay and in vitro ubiquitination. For the recognition and degradation of NRF2 by βTrCP, the serines 335, 338, 342 and 347 located at the Neh6 domain of NRF2 need to be previously phosphorylated by the kinase GSK-3β (FIG. 1). Therefore, to obtain the phosphorylated substrate, 20 ng recombinant NRF2-DETGE was used together with 0.5 μg of recombinant GSK-3β incubated at 30° C. for 60 min. The result was analyzed by western blot. After confirming the existence of phosphorylation in the residues of interest, an in vitro ubiquitination assay was carried out using the recombinant proteins that make up the E3 ubiquitin ligase complex. The ubiquitination reaction was carried out using: ATP (2 mM), […], SCF-βTrCP (450 nM), and non-phosphorylated or phosphorylated NRF2 (20 ng), in a specific ubiquitination buffer (30 mM Tris pH 7.6, 5 mM MgCl2, 2 mM dithiothreitol, 100 mM NaCl). Before the ubiquitination reactions, the E1, Cdc34b, and ubiquitin components were incubated together for 2 min to allow the E2 thioester bond to form. The reactions were incubated for 1 hour at 25° C. in the presence or absence of PHAR (3 μM) in order to determine whether or not PHAR inhibits ubiquitination by βTrCP. […] The PI3K/AKT signaling pathway is inhibited, and therefore GSK-3β is activated with the PI3K inhibitor, LY294002. As a result, NRF2 is phosphorylated by GSK-3β and marked for degradation by means of interaction with β-TrCP. Therefore, if PHAR is capable of inhibiting βTrCP-NRF2 interaction, the NRF2 levels will remain stable independently of the activation and phosphorylation by GSK-3β. […]
Chain of SCF-βTrCP / NRF2 (Q9Y297 whole entry, the tested form may be a part): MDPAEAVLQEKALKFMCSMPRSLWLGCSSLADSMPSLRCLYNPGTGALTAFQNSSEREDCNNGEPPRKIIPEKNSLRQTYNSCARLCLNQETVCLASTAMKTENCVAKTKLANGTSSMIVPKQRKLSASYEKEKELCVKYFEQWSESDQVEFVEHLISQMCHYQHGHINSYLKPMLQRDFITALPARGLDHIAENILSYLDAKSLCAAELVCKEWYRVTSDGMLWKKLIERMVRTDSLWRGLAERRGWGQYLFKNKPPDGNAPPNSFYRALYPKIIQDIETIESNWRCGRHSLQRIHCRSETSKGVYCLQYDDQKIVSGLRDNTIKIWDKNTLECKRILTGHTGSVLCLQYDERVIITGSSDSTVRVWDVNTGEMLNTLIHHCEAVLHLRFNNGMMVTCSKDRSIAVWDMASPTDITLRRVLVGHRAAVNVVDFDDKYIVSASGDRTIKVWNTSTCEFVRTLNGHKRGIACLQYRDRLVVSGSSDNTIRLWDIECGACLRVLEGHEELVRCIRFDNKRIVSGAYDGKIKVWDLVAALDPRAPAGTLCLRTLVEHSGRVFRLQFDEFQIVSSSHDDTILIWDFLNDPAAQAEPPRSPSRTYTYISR
Chain of SCF-βTrCP / NRF2 (P63208 whole entry partner, the tested form may be a part): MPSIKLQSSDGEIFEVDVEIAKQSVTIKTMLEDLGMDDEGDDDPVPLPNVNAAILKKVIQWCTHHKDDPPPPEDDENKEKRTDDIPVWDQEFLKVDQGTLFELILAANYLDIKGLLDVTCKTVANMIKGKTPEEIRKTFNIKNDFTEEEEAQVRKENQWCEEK
Chain of SCF-βTrCP / NRF2 (Q13616 whole entry partner, the tested form may be a part): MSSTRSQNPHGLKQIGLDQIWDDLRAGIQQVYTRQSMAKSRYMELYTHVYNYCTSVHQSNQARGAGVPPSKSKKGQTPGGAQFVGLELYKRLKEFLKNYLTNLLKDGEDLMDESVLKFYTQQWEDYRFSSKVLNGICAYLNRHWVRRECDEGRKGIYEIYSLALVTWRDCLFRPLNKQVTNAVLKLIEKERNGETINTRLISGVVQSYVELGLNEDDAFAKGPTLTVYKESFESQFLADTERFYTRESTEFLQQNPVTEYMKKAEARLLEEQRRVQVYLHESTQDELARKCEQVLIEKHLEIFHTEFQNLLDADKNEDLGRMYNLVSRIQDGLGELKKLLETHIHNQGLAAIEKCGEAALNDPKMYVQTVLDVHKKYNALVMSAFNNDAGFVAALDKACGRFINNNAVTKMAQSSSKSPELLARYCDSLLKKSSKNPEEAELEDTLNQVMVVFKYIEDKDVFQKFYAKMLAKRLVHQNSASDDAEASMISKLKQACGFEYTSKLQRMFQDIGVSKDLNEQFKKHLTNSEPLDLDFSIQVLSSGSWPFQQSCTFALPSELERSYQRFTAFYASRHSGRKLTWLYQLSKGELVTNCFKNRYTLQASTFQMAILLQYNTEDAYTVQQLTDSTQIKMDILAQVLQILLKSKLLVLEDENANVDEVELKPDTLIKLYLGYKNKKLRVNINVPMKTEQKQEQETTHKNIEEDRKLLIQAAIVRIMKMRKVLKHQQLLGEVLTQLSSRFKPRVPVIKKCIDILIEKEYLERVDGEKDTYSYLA
Chain of SCF-βTrCP / NRF2 (P62877 whole entry partner, the tested form may be a part): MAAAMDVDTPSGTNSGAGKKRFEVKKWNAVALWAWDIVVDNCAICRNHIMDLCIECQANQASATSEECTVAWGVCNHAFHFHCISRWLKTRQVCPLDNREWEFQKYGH
FIG. 6. […] Phosphorylation at residues 335, 338, 342 and 347 was analyzed by western blot. […] Polyubiquitinated NRF2 was detected by western blot with anti-ubiquitin antibody. […] E), densitometric analysis of NRF2 protein levels of the representative immunoblot of (D), expressed as a ratio of NRF2/GAPDH. […] G), densitometric analysis of NRF2 and HO1 protein levels of the representative immunoblots of (F), expressed as a ratio of NRF2 and HO1/GAPDH. […]

Data set [1] deals with C57BL/6 mice treated with LPS. The data set can be described thus: Inflammatory response in LPS-treated mice. Format: in vivo, mouse. The protocol:
FIG. 11. PHAR reduces the inflammatory response in LPS-treated mice. The mice were divided into 4 experimental groups (n=4). Experimental groups 1 and 3 were treated by IP route with vehicle (Tween-80+PBS, 1:13) and experimental groups 2 and 4 with 50 mg/kg of PHAR for 5 days. After the second-to-last administration of the compound, groups 3 and 4 were treated by IP route with 1 mg/kg of LPS for 24 h. Two hours after the last dose of PHAR and twenty-four hours after the administration of LPS, all the mice were sacrificed by extracting the liver protein and total RNA, A), representative immunoblots showing NRF2, HO1, and GAPDH protein levels as the liver extract loading control. B), densitometric analysis of NRF2 and HO1 protein levels of the representative immunoblots shown in (A), expressed as a ratio of NRF2/GAPDH or HO1/GAPDH. The data is depicted as means±SEM (n=4). Statistical analysis was performed with one-way ANOVA followed by the Bonferroni test to compare inter-group differences. **p<0.01; ***p<0.001 vs. vehicle. C), the mRNA levels of Il1β, Il6, and Tnfα were determined by means of qRT-PCR and normalized by means of average Gapdh, Tbp, and β-actin. The data is depicted as mean±SEM (n=4). Statistical analysis was performed with one-way ANOVA followed by the Bonferroni test to check inter-group differences. ***p<0.001 vs. LPS. D) Representative images of hematoxylin and eosin (H&E) staining of mouse liver and immunohistochemical F4/80 staining of inflammatory liver macrophages (Kupffer cells).
To that end, 16 wild-type C57BL/6 mice were divided into 4 experimental groups: vehicle (experimental group 1), PHAR (experimental group 2), LPS (3), and LPS+PHAR (4). After obtaining results as promising as those described in detail in Example 1.6, the inventors decided to carry out the same experimental protocol. Briefly, the mice were treated daily by IP route with 50 mg/kg of PHAR (experimental groups 2 and 4) or vehicle (groups 1 and 3). Two hours after the second-to-last administration, experimental groups 3 and 4 were treated by IP route with […] of LPS. Lastly, the last dose of PHAR was administered on the last day and 24 h after the administration of LPS, all the mice were sacrificed by extracting the liver protein and total RNA.

Setting [2] is: mice, IP 50 mg/kg PHAR daily for 5 days.

As to `O=C1[C@@H]2[C@H](Cc3c[nH]c4ccccc34)N[C@]3(C(=O)Nc4ccc(Cl)cc43)[C@@H]2C(=O)N1c1ccc2c(c1)OCCO2` [PHAR], at SCF-βTrCP / NRF2, the “ubiquitination (polyubiquitination) of NRF2 by βTrCP” value is listed as “prevents the ubiquitination of NRF2”. The “ubiquitination (polyubiquitination) of NRF2 by βTrCP” value on SCF-βTrCP / NRF2 (listed as PH) was “polyubiquitination was considerably lower”. The “concentration from which substrate polyubiquitination starts to be reduced” value at SCF-βTrCP / NRF2 (dose curve 3-3000 nM) worked out at 100 nM. Also, in data set [1] (LPS+PHAR-treated versus LPS-treated mice), the “inflammatory activation of hepatic macrophages (Kupffer cells), F4/80 immunostaining” value was “reduction in F4/80 staining; also recorded: greatly attenuated”. In data set [1] (LPS-treated mice, prior IP 50 mg/kg PHAR), the “liver mRNA of pro-inflammatory cytokines (Il1β, Il6, Tnfα)” value was “significant reduction in the production of said cytokines”. In data set [1] (setting [2]), the “liver HO-1 levels” value is recorded as “induction mediated by the compound could be clearly seen” and the “liver NRF2 levels” value is “increase in NRF2 levels”. In addition, the “liver structure (H&E)” value in data set [1] (mice, IP 50 mg/kg PHAR for 5 days) is on record as “remains unaltered”. Moreover, the “liver NRF2 and HO-1 levels with combined treatment PHAR+LPS” value in data set [1] (mice, IP 50 mg/kg PHAR for 5 days plus LPS 24 h) is “synergistic effect”.

The values above are taken from patent publication US12590100B2, “Tetrahydro-spiroindoline-pyrrolopyrrole-triones inhibitors of the NRF2-β-TrCP interaction for use in the treatment of fatty liver disease” (Universidad Autonoma De Madrid, priority 2021, dated 2026).
